Assay results: article PMC7011996 (Journal of Enzyme Inhibition and Medicinal Chemistry, 2017)

Target: T1, hCA XII (Homo sapiens, UniProt O43570)
T1 construct: gene CA12
Experiment: stopped-flow CO2 hydration assay
Format: biochemical

T1 sequence (O43570 25-354): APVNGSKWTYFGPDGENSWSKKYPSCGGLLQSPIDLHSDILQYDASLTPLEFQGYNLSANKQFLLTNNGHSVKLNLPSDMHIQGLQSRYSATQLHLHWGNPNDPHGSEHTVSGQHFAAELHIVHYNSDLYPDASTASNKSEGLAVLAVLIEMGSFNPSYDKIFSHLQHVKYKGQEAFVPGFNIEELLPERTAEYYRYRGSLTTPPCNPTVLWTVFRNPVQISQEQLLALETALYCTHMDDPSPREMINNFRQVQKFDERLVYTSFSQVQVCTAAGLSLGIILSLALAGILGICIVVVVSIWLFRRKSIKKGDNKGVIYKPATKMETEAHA

SMILES: NS(=O)(=O)c1ccc(CC[n+]2c(-c3ccccc3)cc(-c3ccccc3)cc2-c2ccccc2)cc1 [compound 2, 1-(4-sulfamoylphenyl-ethyl)-2,4,6-triphenylpyridinium perchlorate]
- Ki: 0.0125 µM
